Data reported in ChEMBL document CHEMBL6109164, “Discovery of Novel DDR1 Inhibitors through a Hybrid Virtual Screening Pipeline, Biological Evaluation and Molecular Dynamics Simulations” (ACS Med Chem Lett, 2025).
Activity calls are given as the source filed them. The rule behind the calls is not given here.

Assays:
[1] = biological target: Epithelial discoidin domain-containing receptor 1 (Homo sapiens) (UniProt Q08345); experiment: Binding affinity to DDR1 (unknown origin) at LYS655 residue assessed as occupancy relative to control
[2] = biological target: Epithelial discoidin domain-containing receptor 1 (Homo sapiens) (UniProt Q08345); experiment: Binding affinity to DDR1 (unknown origin) at VAL624 residue assessed as occupancy relative to control
Z-138 = experiment: Cytotoxicity against human Z138 cells assessed as reduction in cell viability; type: functional, cell-based

Chain of Epithelial discoidin domain-containing receptor 1 (Homo sapiens) (Q08345 whole entry, the tested form may be a part): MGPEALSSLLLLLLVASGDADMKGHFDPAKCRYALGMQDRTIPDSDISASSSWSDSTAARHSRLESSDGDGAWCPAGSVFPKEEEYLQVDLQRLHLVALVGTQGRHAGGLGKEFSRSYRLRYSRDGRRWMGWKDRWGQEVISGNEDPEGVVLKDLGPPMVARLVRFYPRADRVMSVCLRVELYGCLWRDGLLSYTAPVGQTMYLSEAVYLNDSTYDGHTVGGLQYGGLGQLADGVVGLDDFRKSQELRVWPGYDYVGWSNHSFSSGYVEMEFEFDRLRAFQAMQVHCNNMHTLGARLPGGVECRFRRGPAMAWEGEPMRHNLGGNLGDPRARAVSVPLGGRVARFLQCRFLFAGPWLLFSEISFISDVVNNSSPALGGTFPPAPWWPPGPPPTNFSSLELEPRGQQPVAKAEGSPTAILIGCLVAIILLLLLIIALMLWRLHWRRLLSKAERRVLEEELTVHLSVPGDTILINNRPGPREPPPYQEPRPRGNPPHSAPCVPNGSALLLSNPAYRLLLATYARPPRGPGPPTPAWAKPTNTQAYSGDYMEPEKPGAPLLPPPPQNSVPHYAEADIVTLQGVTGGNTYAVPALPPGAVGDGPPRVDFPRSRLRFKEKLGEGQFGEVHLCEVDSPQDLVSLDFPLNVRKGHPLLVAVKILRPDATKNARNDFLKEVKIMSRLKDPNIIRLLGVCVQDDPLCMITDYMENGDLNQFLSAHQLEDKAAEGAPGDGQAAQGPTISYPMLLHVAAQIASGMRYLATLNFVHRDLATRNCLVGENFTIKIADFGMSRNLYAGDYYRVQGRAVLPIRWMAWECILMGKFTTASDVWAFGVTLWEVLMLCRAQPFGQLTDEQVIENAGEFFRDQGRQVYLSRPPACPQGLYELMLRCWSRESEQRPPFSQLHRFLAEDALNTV

| Occ [1] [%] | Occ [2] [%] | Structure (SMILES) | Activity (Z-138) |
| --- | --- | --- | --- |
| 69.9 | 82.8 | CN1CCN(c2ccc(C(=O)Nc3n[nH]c4ccc(Cc5cc(F)cc(F)c5)cc34)c(NC3CCOCC3)c2)CC1 | Active |
| – | – | Cc1cc(Nc2cc(N3CCN(C)CC3)nc(Sc3ccc(NC(=O)C4CC4)cc3)n2)n[nH]1 | Active |
